Assays:
WP_074995790 = target: T1, WP_074995790 (Streptomyces misionensis, UniProt A0A1H5HEE9); experiment: pNP release at […] nm; type: biochemical; details: 200 µM substrate, phosphate citrate buffer; only specific activity reported
T1 construct: gene SAMN04490357_7452; synthetic gene without secretion signal, pET20b, C-terminal His-tag, E. coli Rosetta DE3, Ni-IDA purified
T1 sequence (A0A1H5HEE9 63-752): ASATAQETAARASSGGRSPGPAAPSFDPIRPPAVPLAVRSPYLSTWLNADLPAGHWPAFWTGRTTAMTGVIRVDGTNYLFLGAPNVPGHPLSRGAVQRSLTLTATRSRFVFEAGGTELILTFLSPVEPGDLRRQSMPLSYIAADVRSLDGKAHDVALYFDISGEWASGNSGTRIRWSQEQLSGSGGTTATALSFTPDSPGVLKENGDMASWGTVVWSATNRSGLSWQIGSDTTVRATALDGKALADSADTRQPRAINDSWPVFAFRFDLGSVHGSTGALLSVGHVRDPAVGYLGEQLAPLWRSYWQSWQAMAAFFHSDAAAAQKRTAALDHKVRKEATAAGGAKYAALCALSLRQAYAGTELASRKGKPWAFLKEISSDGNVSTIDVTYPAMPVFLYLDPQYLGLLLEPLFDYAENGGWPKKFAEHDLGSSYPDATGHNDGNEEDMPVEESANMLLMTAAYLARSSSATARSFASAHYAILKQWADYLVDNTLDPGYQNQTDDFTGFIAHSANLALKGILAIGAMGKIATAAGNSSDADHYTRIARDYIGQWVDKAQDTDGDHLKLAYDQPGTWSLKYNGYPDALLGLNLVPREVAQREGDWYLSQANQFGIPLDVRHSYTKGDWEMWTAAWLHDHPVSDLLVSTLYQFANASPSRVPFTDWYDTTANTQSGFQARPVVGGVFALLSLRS

Phchr2|2915237 = tested on: T2, Phchr2|2915237; experiment: discontinuous pNP release at […] nm; type: biochemical, Phanerodontia chrysosporium; details: phosphate citrate buffer; pH and temperature of the kinetics not restated (optimum pH 5, 60 °C)
T2 construct: gene phchr2_2915237; synthetic gene from JGI model, secreted by Aspergillus oryzae, C-terminal 6xHis tag kept, Ni-purified

Phchr2|126075 = tested on: T3, Phchr2|126075; experiment: continuous pNP release at […] nm, filtered K. lactis culture supernatant; type: biochemical, Phanerodontia chrysosporium; details: 50 mM TRIS pH 8, 20 mM KCl, 40 °C
T3 construct: gene phchr2_126075; filtered culture supernatant assayed

SMILES: O=[N+]([O-])c1ccc(O[C@@H]2O[C@H](CO)[C@H](O)[C@H](O)[C@H]2O)cc1 [pNP-Gal]
- pNP release at 410 nm (WP_074995790): we were able to detect a weak β-galactosidase activity

SMILES: O=[N+]([O-])c1ccc(O[C@@H]2O[C@H](CO)[C@@H](O)[C@H](O)[C@H]2O)cc1 [pNP-Glc]
- Km (Phchr2|2915237): 1820 µM

SMILES: O=[N+]([O-])c1ccc(O[C@@H]2OC[C@@H](O)[C@H](O)[C@H]2O)cc1 [pNP-Xyl]
- Km (Phchr2|2915237): 6980 µM

SMILES: CC(=O)Oc1ccc([N+](=O)[O-])cc1 [pNP-acetate]
- Km (Phchr2|126075): 670 µM

Reference: article PMC9668830, “Identification of fungal lignocellulose-degrading biocatalysts secreted by Phanerochaete chrysosporium via activity-based protein profiling” (Communications Biology, 2022)
